The values that follow come from publication PMC5218480 (PLoS ONE, 2017).

The test system of this test is MV-4-11 cells. As to the kind of experiment: Gene expression microarray analysis (Affymetrix PrimeView) and GSEA. It is filed as cell-based, human. The arrangement: RFU PODN (11730768_x_at) / Fold change /veh PODN (11730768_x_at) / RFU LINC00158 (11744669_a_at) / Fold change /veh LINC00158 (11744669_a_at) / RFU DUSP10 (11751237_a_at) / Fold change /veh DUSP10 (11751237_a_at) / RFU ID3 (11757404_x_at) / Fold change /veh ID3 (11757404_x_at) / RFU PLEKHG5 (11737974_s_at) / Fold change /veh PLEKHG5 (11737974_s_at) / RFU LRRC4B (11730491_at) / Fold change /veh LRRC4B (11730491_at) / RFU GIMAP4 (11747438_a_at) / Fold change /veh GIMAP4 (11747438_a_at) / RFU KRT8 (11758183_x_at) / Fold change /veh KRT8 (11758183_x_at) / RFU CNN1 (11734310_a_at) / Fold change /veh CNN1 (11734310_a_at) / RFU VPS37D (11726825_at) / Fold change /veh VPS37D (11726825_at) / RFU C10orf10 (11716522_x_at) / Fold change /veh C10orf10 (11716522_x_at) / RFU KIR2DL2 /// KIR2DL4 /// KIR2DL5A /// KIR2DL5B /// KIR2DS1 /// KIR2DS2 /// KIR2DS3 /// KIR2DS4 /// KIR3DL3 /// KIR3DL3 /// KIR3DS1 (11738374_at) / Fold change /veh KIR2DL2 /// KIR2DL4 /// KIR2DL5A /// KIR2DL5B /// KIR2DS1 /// KIR2DS2 /// KIR2DS3 /// KIR2DS4 /// KIR3DL3 /// KIR3DL3 /// KIR3DS1 (11738374_at) / RFU C1QL1 (11718748_at) / Fold change /veh C1QL1 (11718748_at) / RFU TMPRSS4 (11747572_a_at) / Fold change /veh TMPRSS4 (11747572_a_at) / RFU HAMP (11756126_x_at) / Fold change /veh HAMP (11756126_x_at) / RFU RNFT2 (11725882_a_at) / Fold change /veh RNFT2 (11725882_a_at) / RFU NR4A2 (11747474_a_at) / Fold change /veh NR4A2 (11747474_a_at) / RFU ABCC12 (11746883_a_at) / Fold change /veh ABCC12 (11746883_a_at) / RFU TMEM136 (11760407_x_at) / Fold change /veh TMEM136 (11760407_x_at) / RFU CLDN22 /// WWC2 (11732394_at) / Fold change /veh CLDN22 /// WWC2 (11732394_at) / RFU HLA-DPB1 (11760878_x_at) / Fold change /veh HLA-DPB1 (11760878_x_at) / RFU SPINT1 (11716480_a_at) / Fold change /veh SPINT1 (11716480_a_at) / RFU GAP43 (11754022_s_at) / Fold change /veh GAP43 (11754022_s_at) / RFU A4GNT (11735810_at) / Fold change /veh A4GNT (11735810_at) / RFU PRB3 (11715151_x_at) / Fold change /veh PRB3 (11715151_x_at) / RFU TUBB4B (11761932_at) / Fold change /veh TUBB4B (11761932_at) / RFU CAPN14 (11732068_a_at) / Fold change /veh CAPN14 (11732068_a_at) / RFU TMCC2 (11721928_a_at) / Fold change /veh TMCC2 (11721928_a_at) / RFU IRGQ (11745062_a_at) / Fold change /veh IRGQ (11745062_a_at) / RFU FAM174B (11720279_a_at) / Fold change /veh FAM174B (11720279_a_at) / RFU TMPRSS4 (11748680_a_at) / Fold change /veh TMPRSS4 (11748680_a_at) / RFU FAM212B (11763350_a_at) / Fold change /veh FAM212B (11763350_a_at) / RFU PLEKHG5 (11743358_a_at) / Fold change /veh PLEKHG5 (11743358_a_at) / RFU ZSCAN30 (11745921_a_at) / Fold change /veh ZSCAN30 (11745921_a_at) / RFU CMKLR1 (11741424_a_at) / Fold change /veh CMKLR1 (11741424_a_at) / RFU LOC101060620 /// MAPK8IP1 (11723275_at) / Fold change /veh LOC101060620 /// MAPK8IP1 (11723275_at) / RFU SPTSSB (11747773_x_at) / Fold change /veh SPTSSB (11747773_x_at) / RFU PRSS12 (11739890_at) / Fold change /veh PRSS12 (11739890_at) / RFU BIN1 (11741810_x_at) / Fold change /veh BIN1 (11741810_x_at) / RFU WNT11 (11732464_a_at) / Fold change /veh WNT11 (11732464_a_at) / RFU C10orf10 (11716521_a_at) / Fold change /veh C10orf10 (11716521_a_at) / RFU C5orf56 (11738089_at) / Fold change /veh C5orf56 (11738089_at) / RFU CYB561 (11721691_x_at) / Fold change /veh CYB561 (11721691_x_at) / RFU ANKRD19P (11752326_a_at) / Fold change /veh ANKRD19P (11752326_a_at) / RFU OR2T12 /// OR2T33 /// OR2T8 (11738714_s_at) / Fold change /veh OR2T12 /// OR2T33 /// OR2T8 (11738714_s_at) / RFU VCAN (11748164_a_at) / Fold change /veh VCAN (11748164_a_at) / RFU JSRP1 (11732532_at) / Fold change /veh JSRP1 (11732532_at) / RFU KRTAP10-11 (11738290_x_at) / Fold change /veh KRTAP10-11 (11738290_x_at) / RFU MYO3A (11730013_a_at) / Fold change /veh MYO3A (11730013_a_at) / RFU EBF3 (11725865_a_at) / Fold change /veh EBF3 (11725865_a_at) / RFU CAMK2N1 (11719241_x_at) / Fold change /veh CAMK2N1 (11719241_x_at) / RFU C5orf56 (11738088_a_at) / Fold change /veh C5orf56 (11738088_a_at) / RFU OLFML3 (11715873_a_at) / Fold change /veh OLFML3 (11715873_a_at) / RFU LOC100653217 /// NTM (11731650_a_at) / Fold change /veh LOC100653217 /// NTM (11731650_a_at) / RFU MAPK11 (11762145_a_at) / Fold change /veh MAPK11 (11762145_a_at) / RFU FIZ1 (11724087_x_at) / Fold change /veh FIZ1 (11724087_x_at) / RFU OASL (11726364_x_at) / Fold change /veh OASL (11726364_x_at) / RFU SOX15 (11748057_x_at) / Fold change /veh SOX15 (11748057_x_at) / RFU CD79A (11719716_a_at) / Fold change /veh CD79A (11719716_a_at) / RFU HIST1H1D (11736915_at) / Fold change /veh HIST1H1D (11736915_at) / RFU CASKIN2 (11723855_a_at) / Fold change /veh CASKIN2 (11723855_a_at) / RFU LOC730098 (11760151_x_at) / Fold change /veh LOC730098 (11760151_x_at) / RFU OR4N2 (11742367_at) / Fold change /veh OR4N2 (11742367_at) / RFU PRRT2 (11749266_a_at) / Fold change /veh PRRT2 (11749266_a_at) / RFU SNX32 (11753110_a_at) / Fold change /veh SNX32 (11753110_a_at) / RFU CDHR5 (11726645_a_at) / Fold change /veh CDHR5 (11726645_a_at) / RFU RCAN1 (11760418_a_at) / Fold change /veh RCAN1 (11760418_a_at) / RFU FAM167A (11723789_a_at) / Fold change /veh FAM167A (11723789_a_at) / RFU FAM26E (11764081_at) / Fold change /veh FAM26E (11764081_at) / RFU ISYNA1 (11749810_s_at) / Fold change /veh ISYNA1 (11749810_s_at) / RFU ACY1 (11761880_at) / Fold change /veh ACY1 (11761880_at) / RFU 11764098_at / Fold change /veh 11764098_at / RFU SAMD14 (11745864_x_at) / Fold change /veh SAMD14 (11745864_x_at) / RFU NPB (11741838_a_at) / Fold change /veh NPB (11741838_a_at) / RFU TMPRSS6 (11731388_a_at) / Fold change /veh TMPRSS6 (11731388_a_at) / RFU KRTAP10-2 (11738614_at) / Fold change /veh KRTAP10-2 (11738614_at) / RFU ARHGAP8 /// PRR5-ARHGAP8 (11727945_x_at) / Fold change /veh ARHGAP8 /// PRR5-ARHGAP8 (11727945_x_at) / RFU KRTAP5-7 /// NADSYN1 (11734609_at) / Fold change /veh KRTAP5-7 /// NADSYN1 (11734609_at) / RFU RASL12 (11751679_a_at) / Fold change /veh RASL12 (11751679_a_at) / RFU CDKN2B (11736163_a_at) / Fold change /veh CDKN2B (11736163_a_at) / RFU PRF1 (11729649_at) / Fold change /veh PRF1 (11729649_at) / RFU, ZNF638 /// ZNF638-IT1 / Fold change vs veh, ZNF638 /// ZNF638-IT1 / RFU, PANK3 / Fold change vs veh, PANK3 / RFU, SH3YL1 / Fold change vs veh, SH3YL1 / RFU, ZEB2 / Fold change vs veh, ZEB2 / RFU, NRIP1 / Fold change vs veh, NRIP1 / RFU, PTTG1IP / Fold change vs veh, PTTG1IP / RFU, CAPN2 / Fold change vs veh, CAPN2 / RFU, MED14 / Fold change vs veh, MED14 / RFU, SNORA58 / Fold change vs veh, SNORA58 / RFU, C1orf63 / Fold change vs veh, C1orf63 / RFU, LRRFIP1 / Fold change vs veh, LRRFIP1 / RFU, NDUFAF7 / Fold change vs veh, NDUFAF7 / RFU, SLC12A2 / Fold change vs veh, SLC12A2 / RFU, IBTK / Fold change vs veh, IBTK / RFU, ESF1 / Fold change vs veh, ESF1 / Fold change vs veh, TMEM50B / RFU, TAOK1 / Fold change vs veh, TAOK1 / RFU, ACBD3 / Fold change vs veh, ACBD3 / RFU, TMA16 / Fold change vs veh, TMA16 / RFU, RWDD3 / Fold change vs veh, RWDD3 / RFU, BCAT1 / Fold change vs veh, BCAT1 / RFU, EDEM3 / Fold change vs veh, EDEM3 / RFU, TMEM33 / Fold change vs veh, TMEM33 / RFU, WDR75 / Fold change vs veh, WDR75 / RFU, AHCTF1 / Fold change vs veh, AHCTF1 / RFU, TFRC / Fold change vs veh, TFRC / RFU, ZDHHC17 / Fold change vs veh, ZDHHC17 / RFU, NOM1 / Fold change vs veh, NOM1 / RFU, ARL8B / Fold change vs veh, ARL8B / RFU, ZBTB11 / Fold change vs veh, ZBTB11 / RFU, TAMM41 / Fold change vs veh, TAMM41 / RFU, KIAA1704 /// LOC100996395 / Fold change vs veh, KIAA1704 /// LOC100996395 / RFU, ING1 / Fold change vs veh, ING1 / RFU, TRMT61B / Fold change vs veh, TRMT61B / RFU, FUBP3 / Fold change vs veh, FUBP3 / RFU, TP53 / Fold change vs veh, TP53 / RFU, TNKS2 / Fold change vs veh, TNKS2 / RFU, ZFP14 / Fold change vs veh, ZFP14 / RFU, ACTR2 / Fold change vs veh, ACTR2 / RFU, PPP3R1 / Fold change vs veh, PPP3R1 / RFU, PIK3R1 / Fold change vs veh, PIK3R1 / RFU, HNRNPA1 / Fold change vs veh, HNRNPA1 / RFU, RNF170 / Fold change vs veh, RNF170 / RFU, ZNF28 / Fold change vs veh, ZNF28 / RFU, RNGTT / Fold change vs veh, RNGTT / RFU, OGT / Fold change vs veh, OGT / RFU, BRD1 / Fold change vs veh, BRD1 / RFU, MARS / Fold change vs veh, MARS / RFU, ZNF655 / Fold change vs veh, ZNF655 / RFU, FAHD1 / Fold change vs veh, FAHD1 / RFU, BDP1 / Fold change vs veh, BDP1 / RFU, LRRCC1 / Fold change vs veh, LRRCC1 / RFU, ARID1A / Fold change vs veh, ARID1A / RFU, ZNF146 / Fold change vs veh, ZNF146 / RFU, ZNF330 / Fold change vs veh, ZNF330 / RFU, GPN3 / Fold change vs veh, GPN3 / RFU, C9orf123 / Fold change vs veh, C9orf123 / RFU, N4BP2L2 / Fold change vs veh, N4BP2L2 / RFU, ARFIP1 / Fold change vs veh, ARFIP1 / RFU, FAM179B / Fold change vs veh, FAM179B / RFU, BCL10 / Fold change vs veh, BCL10 / RFU, UHRF1BP1L / Fold change vs veh, UHRF1BP1L / RFU, BET1 / Fold change vs veh, BET1 / RFU, CNOT2 / Fold change vs veh, CNOT2 / RFU, ZNF268 / Fold change vs veh, ZNF268 / Fold change vs veh, ZNF507 / RFU, DGCR2 / Fold change vs veh, DGCR2 / RFU, WDSUB1 / Fold change vs veh, WDSUB1 / Fold change vs veh, HSP90B1 /// MIR3652 / RFU, ADSS / Fold change vs veh, ADSS / RFU, GK / Fold change vs veh, GK / RFU, ZNF148 / Fold change vs veh, ZNF148 / RFU, TAF9 / Fold change vs veh, TAF9 / RFU, SLC1A5 / Fold change vs veh, SLC1A5 / RFU, SLMO2 / Fold change vs veh, SLMO2 / RFU, ABCC4 / Fold change vs veh, ABCC4 / RFU, LOC101060439 /// RAP1B / Fold change vs veh, LOC101060439 /// RAP1B / RFU, RFX7 / Fold change vs veh, RFX7 / RFU, GTPBP10 / Fold change vs veh, GTPBP10 / RFU, CNEP1R1 / Fold change vs veh, CNEP1R1 / RFU, BIVM-ERCC5 /// ERCC5 / Fold change vs veh, BIVM-ERCC5 /// ERCC5 / RFU, ILF3 / Fold change vs veh, ILF3 / RFU 11762660_at / Fold change /veh 11762660_at / RFU VCAN (11757783_s_at) / Fold change /veh VCAN (11757783_s_at) / RFU DDX43 (11728927_at) / Fold change /veh DDX43 (11728927_at) / RFU KRT8 (11758188_x_at) / Fold change /veh KRT8 (11758188_x_at) / RFU NKD1 (11759106_at) / Fold change /veh NKD1 (11759106_at) / RFU SRD5A1 (11742802_a_at) / Fold change /veh SRD5A1 (11742802_a_at) / RFU TPSAB1 /// TPSB2 (11721975_s_at) / Fold change /veh TPSAB1 /// TPSB2 (11721975_s_at) / RFU GSTM3 (11746129_a_at) / Fold change /veh GSTM3 (11746129_a_at) / RFU IL23R (11737362_x_at) / Fold change /veh IL23R (11737362_x_at) / RFU TMEM51 (11727254_a_at) / Fold change /veh TMEM51 (11727254_a_at) / RFU PIWIL2 (11732686_x_at) / Fold change /veh PIWIL2 (11732686_x_at) / RFU ORM1 (11744905_x_at) / Fold change /veh ORM1 (11744905_x_at) / RFU CCDC152 (11743942_at) / Fold change /veh CCDC152 (11743942_at) / RFU ECM1 (11717891_a_at) / Fold change /veh ECM1 (11717891_a_at) / RFU IL23R (11748794_a_at) / Fold change /veh IL23R (11748794_a_at) / RFU TNFAIP8L3 (11732012_x_at) / Fold change /veh TNFAIP8L3 (11732012_x_at) / RFU MBOAT4 (11741988_at) / Fold change /veh MBOAT4 (11741988_at) / RFU 11764193_at / Fold change /veh 11764193_at / RFU TMEM53 (11763286_at) / Fold change /veh TMEM53 (11763286_at) / RFU MAGEB2 (11727129_at) / Fold change /veh MAGEB2 (11727129_at) / RFU TMEM200A (11744735_a_at) / Fold change /veh TMEM200A (11744735_a_at) / RFU CCDC152 (11751479_a_at) / Fold change /veh CCDC152 (11751479_a_at) / RFU FAM211A (11726209_a_at) / Fold change /veh FAM211A (11726209_a_at) / RFU RGS16 (11746705_a_at) / Fold change /veh RGS16 (11746705_a_at) / RFU VCAN (11755009_s_at) / Fold change /veh VCAN (11755009_s_at) / RFU RHOB (11743442_s_at) / Fold change /veh RHOB (11743442_s_at) / RFU RGS16 (11720943_a_at) / Fold change /veh RGS16 (11720943_a_at) / RFU RGS16 (11720944_at) / Fold change /veh RGS16 (11720944_at) / RFU, VPS4B / Fold change vs veh, VPS4B / RFU, CREB1 / Fold change vs veh, CREB1 / RFU, DNAJC13 / Fold change vs veh, DNAJC13 / RFU, GNAQ / Fold change vs veh, GNAQ / RFU, CDK5R1 / Fold change vs veh, CDK5R1 / RFU, ZRANB3 / Fold change vs veh, ZRANB3 / RFU, CUL4A / Fold change vs veh, CUL4A / RFU, CCNY / Fold change vs veh, CCNY / RFU, UFL1 / Fold change vs veh, UFL1 / RFU, COG3 / Fold change vs veh, COG3 / RFU, DIAPH2 / Fold change vs veh, DIAPH2 / RFU, SKA2 / Fold change vs veh, SKA2 / RFU, AFF3 / Fold change vs veh, AFF3 / RFU, LMF1 / Fold change vs veh, LMF1 / RFU, IPO11 / Fold change vs veh, IPO11 / RFU, DFFB / Fold change vs veh, DFFB / RFU, FOXP1 / Fold change vs veh, FOXP1 / RFU, CARD8 / Fold change vs veh, CARD8 / RFU, STRN3 / Fold change vs veh, STRN3 / RFU, ADK / Fold change vs veh, ADK / RFU, RASSF2 / Fold change vs veh, RASSF2 / RFU, WIPF1 / Fold change vs veh, WIPF1 / RFU, LARP1B / Fold change vs veh, LARP1B / RFU, RASA1 / Fold change vs veh, RASA1 / RFU, RB1 / Fold change vs veh, RB1 / RFU, PPFIA1 / Fold change vs veh, PPFIA1 / RFU, MAT2A / Fold change vs veh, MAT2A / RFU, CCT5 / Fold change vs veh, CCT5 / RFU, WDR92 / Fold change vs veh, WDR92 / RFU, CUX1 / Fold change vs veh, CUX1 / RFU, TTC7A / Fold change vs veh, TTC7A / RFU, TMEM135 / Fold change vs veh, TMEM135 / RFU, DEPTOR / Fold change vs veh, DEPTOR / RFU, CPM / Fold change vs veh, CPM / RFU, DNAJB6 / Fold change vs veh, DNAJB6 / RFU, CACNA2D3 / Fold change vs veh, CACNA2D3 / RFU, DTX4 / Fold change vs veh, DTX4 / RFU, TFCP2 / Fold change vs veh, TFCP2 / RFU, GMCL1 /// GMCL1P1 / Fold change vs veh, GMCL1 /// GMCL1P1 / RFU, AEBP2 / Fold change vs veh, AEBP2 / RFU, SNHG1 /// SNORD22 /// SNORD25 /// SNORD26 /// SNORD27 /// SNORD28 /// SNORD29 /// SNORD31 / Fold change vs veh, SNHG1 /// SNORD22 /// SNORD25 /// SNORD26 /// SNORD27 /// SNORD28 /// SNORD29 /// SNORD31 / Fold change (Aza/veh), C12orf56 (ProbeSet 11735607_a_at) / Fold change (ACY-1035/veh), C12orf56 (ProbeSet 11735607_a_at) / Fold change (Aza/veh), FGFR1OP (ProbeSet 11751329_s_at) / Fold change (ACY-1035/veh), FGFR1OP (ProbeSet 11751329_s_at) / Fold change (Aza/veh), VPS36 (ProbeSet 11739960_a_at) / Fold change (ACY-1035/veh), VPS36 (ProbeSet 11739960_a_at) / RFU SYPL1 (11715823_x_at) / Fold change /veh SYPL1 (11715823_x_at) / RFU IGFBP7 (11715501_s_at) / Fold change /veh IGFBP7 (11715501_s_at) / RFU REEP3 (11722064_at) / Fold change /veh REEP3 (11722064_at) / RFU IGLL1 (11728026_x_at) / Fold change /veh IGLL1 (11728026_x_at): dose or concentration left out as unconfirmed. The note with it: MV-4-11 cells, 48 hours.

Take `Nc1ncn([C@@H]2O[C@H](CO)[C@@H](O)[C@H]2O)c(=O)n1` [azacitidine]: the “RFU ISYNA1 (11749810_s_at)” value was found to be 23.56 RFU.
